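Assay format: 96-well plates, 48-hour exposure. Abbreviation: GI50, concentration required for 50% inhibition of growth.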 Activity calls are given as the source filed them. Cut-off read from the data, not from the text of the source: active = GI50 up to about 1.1 µM and inactive = higher.
What was measured:
Experiment in all cases: inhibition of tumour cell growth, NCI panel, 48 h
HL-60 = system: HL-60
HT-29 = system: HT-29
HCC 2998 = system: HCC 2998
MDA-MB-231 = system: MDA-MB-231
MDA-MB-435 = system: MDA-MB-435
Malme-3M = system: Malme-3M
NCI-H460 = system: NCI-H460
HCT-116 = system: HCT-116
MOLT-4 = system: MOLT-4
SN12C = system: SN12C
IGROV-1 = system: IGROV-1
RXF 393 = system: RXF 393
UACC-62 = system: UACC-62
UACC-257 = system: UACC-257
UO-31 = system: UO-31
A498 = system: A498
HOP-92 = system: HOP-92
OVCAR-5 = system: OVCAR-5
OVCAR-4 = system: OVCAR-4

Q: Which results are given for `O=C(Nc1ccccc1C(=O)O)C(=Cc1ccccc1O)NC(=O)c1ccccc1`?
A: GI50 (HL-60): > 100 µM (inactive); GI50 (HT-29): > 100 µM (inactive); GI50 (HCC 2998): > 100 µM (inactive); GI50 (MDA-MB-231): > 100 µM (inactive); GI50 (MDA-MB-435): 32.4 µM (inactive); GI50 (Malme-3M): > 100 µM (inactive); GI50 (NCI-H460): > 100 µM (inactive); GI50 (HCT-116): > 100 µM (inactive); GI50 (MOLT-4): > 100 µM (inactive); GI50 (SN12C): > 100 µM (inactive); GI50 (IGROV-1): > 100 µM (inactive); GI50 (RXF 393): > 100 µM (inactive); GI50 (UACC-62): > 100 µM (inactive); GI50 (UACC-257): > 100 µM (inactive); GI50 (UO-31): > 100 µM (inactive); GI50 (A498): > 100 µM (inactive); GI50 (HOP-92): > 100 µM (inactive); GI50 (OVCAR-5): > 100 µM (inactive)

Q: Which GI50 (HL-60) does the source give for `O=c1c2ccccc2nc(-c2ccccc2)n1/N=C/c1ccccc1[N+](=O)[O-]` here?
A: Its GI50 is > 100 µM (inactive).

Q: And the GI50 (HT-29)?
A: The GI50 was > 100 µM (inactive).

Q: And the GI50 (HCC 2998)?
A: Its GI50 is > 100 µM (inactive).

Q: What about the GI50 (MDA-MB-231) of the same compound?
A: The GI50 was 17.7 µM (inactive).

Q: And the GI50 (MDA-MB-435)?
A: The GI50 was > 100 µM (inactive).

Q: And the GI50 (Malme-3M)?
A: The GI50 was > 100 µM (inactive).

Q: And the GI50 (NCI-H460)?
A: The GI50 was > 91.2 µM (inactive).

Q: What about the GI50 (HCT-116) of the same compound?
A: The GI50 was 40.5 µM (inactive).

Q: And the GI50 (MOLT-4)?
A: Its GI50 is > 100 µM (inactive).

Q: And the GI50 (SN12C)?
A: Its GI50 is > 74.8 µM (inactive).

Q: What about the GI50 (IGROV-1) of the same compound?
A: Its GI50 is > 69.7 µM (inactive).

Q: And the GI50 (RXF 393)?
A: Its GI50 is 19.3 µM (inactive).

Q: And the GI50 (UACC-62)?
A: The GI50 was 79.6 µM (inactive).

Q: And the GI50 (UACC-257)?
A: The GI50 was > 100 µM (inactive).

Q: And the GI50 (A498)?
A: Its GI50 is > 75.2 µM (inactive).

Q: What about the GI50 (HOP-92) of the same compound?
A: Its GI50 is 29.2 µM (inactive).

Q: And the GI50 (OVCAR-4)?
A: Its GI50 is > 91.2 µM (inactive).

Q: What about the GI50 (OVCAR-5) of the same compound?
A: Its GI50 is > 100 µM (inactive).

Q: How did the GI50 (HT-29) turn out when `Cc1cn(CCCCCCC2=NCCCN2)c(=O)[nH]c1=O` was run?
A: Its GI50 is > 100 µM (inactive).

Q: What about the GI50 (HCC 2998) of the same compound?
A: Its GI50 is > 100 µM (inactive).

Q: And the GI50 (MDA-MB-231)?
A: The GI50 was > 100 µM (inactive).

Q: And the GI50 (MDA-MB-435)?
A: The GI50 was > 100 µM (inactive).

Q: And the GI50 (Malme-3M)?
A: Its GI50 is > 100 µM (inactive).

Q: And the GI50 (NCI-H460)?
A: The GI50 was > 100 µM (inactive).

Q: And the GI50 (HCT-116)?
A: Its GI50 is > 100 µM (inactive).

Q: And the GI50 (MOLT-4)?
A: Its GI50 is > 100 µM (inactive).

Q: What about the GI50 (SN12C) of the same compound?
A: The GI50 was > 100 µM (inactive).

Q: What about the GI50 (IGROV-1) of the same compound?
A: Its GI50 is > 100 µM (inactive).

Q: What about the GI50 (RXF 393) of the same compound?
A: Its GI50 is > 100 µM (inactive).

Q: And the GI50 (UACC-62)?
A: The GI50 was > 100 µM (inactive).

Q: And the GI50 (UACC-257)?
A: The GI50 was > 100 µM (inactive).

Q: And the GI50 (UO-31)?
A: Its GI50 is > 100 µM (inactive).

Q: And the GI50 (A498)?
A: Its GI50 is > 100 µM (inactive).

Q: What about the GI50 (HOP-92) of the same compound?
A: Its GI50 is > 100 µM (inactive).

Q: And the GI50 (OVCAR-4)?
A: The GI50 was > 100 µM (inactive).

Q: What about the GI50 (OVCAR-5) of the same compound?
A: Its GI50 is > 100 µM (inactive).

Q: With `COC(OC)C1(c2ccccc2)Oc2ccccc2C1=O` (stereo unspecified) as the compound, how does the GI50 (HL-60) read?
A: Its GI50 is > 100 µM (inactive).

Q: What about the GI50 (HT-29) of the same compound?
A: Its GI50 is > 100 µM (inactive).

Q: What about the GI50 (HCC 2998) of the same compound?
A: The GI50 was > 100 µM (inactive).

Q: And the GI50 (MDA-MB-231)?
A: The GI50 was > 100 µM (inactive).

Q: And the GI50 (MDA-MB-435)?
A: Its GI50 is > 100 µM (inactive).

Q: And the GI50 (Malme-3M)?
A: Its GI50 is > 100 µM (inactive).

Q: What about the GI50 (NCI-H460) of the same compound?
A: The GI50 was > 100 µM (inactive).

Q: And the GI50 (HCT-116)?
A: Its GI50 is > 100 µM (inactive).

Q: What about the GI50 (MOLT-4) of the same compound?
A: Its GI50 is 68.7 µM (inactive).

Q: And the GI50 (SN12C)?
A: Its GI50 is > 100 µM (inactive).

Q: What about the GI50 (IGROV-1) of the same compound?
A: The GI50 was > 100 µM (inactive).

Q: What about the GI50 (RXF 393) of the same compound?
A: The GI50 was > 100 µM (inactive).

Q: What about the GI50 (UACC-62) of the same compound?
A: The GI50 was > 100 µM (inactive).

Q: What about the GI50 (UACC-257) of the same compound?
A: Its GI50 is > 100 µM (inactive).

Q: What about the GI50 (A498) of the same compound?
A: Its GI50 is > 100 µM (inactive).

Q: What about the GI50 (HOP-92) of the same compound?
A: Its GI50 is > 100 µM (inactive).

Q: What about the GI50 (OVCAR-4) of the same compound?
A: Its GI50 is > 100 µM (inactive).

Q: And the GI50 (OVCAR-5)?
A: The GI50 was > 100 µM (inactive).

Q: Which results are given for `COC(=O)[C@H](CC(C)C)NC1=C(Cl)C(=O)c2c(O)ccc(O)c2C1=O`?
A: GI50 (HL-60): 8.02 µM (inactive); GI50 (HT-29): 3.01 µM (inactive); GI50 (HCC 2998): > 10 µM (inactive); GI50 (MDA-MB-231): > 10 µM (inactive); GI50 (MDA-MB-435): 8.89 µM (inactive); GI50 (Malme-3M): 0.887 µM (active); GI50 (NCI-H460): > 10 µM (inactive); GI50 (HCT-116): 2.46 µM (inactive); GI50 (MOLT-4): 3.52 µM (inactive); GI50 (SN12C): > 10 µM (inactive); GI50 (IGROV-1): > 10 µM (inactive); GI50 (RXF 393): > 10 µM (inactive); GI50 (UACC-62): > 10 µM (inactive); GI50 (UACC-257): > 10 µM (inactive); GI50 (A498): > 10 µM (inactive); GI50 (HOP-92): > 10 µM (inactive); GI50 (OVCAR-4): > 10 µM (inactive); GI50 (OVCAR-5): > 10 µM (inactive)

Q: What does the source list for `Cc1ccc(-n2c(N)c(C#N)c3[nH]nc(N)c3c2=O)cc1`?
A: GI50 (HL-60): > 100 µM (inactive); GI50 (HT-29): > 100 µM (inactive); GI50 (HCC 2998): > 100 µM (inactive); GI50 (MDA-MB-231): > 100 µM (inactive); GI50 (MDA-MB-435): > 100 µM (inactive); GI50 (NCI-H460): > 100 µM (inactive); GI50 (HCT-116): > 100 µM (inactive); GI50 (MOLT-4): > 100 µM (inactive); GI50 (IGROV-1): > 100 µM (inactive); GI50 (RXF 393): > 100 µM (inactive); GI50 (UACC-62): > 100 µM (inactive); GI50 (UACC-257): > 100 µM (inactive); GI50 (UO-31): > 100 µM (inactive); GI50 (A498): > 100 µM (inactive); GI50 (HOP-92): > 100 µM (inactive); GI50 (OVCAR-4): > 100 µM (inactive)

Reference: ChEMBL document CHEMBL1201862, “PubChem BioAssay data set” (2004)
